Columns and labels:
NSCLC cell lines = test: Erlotinib sensitivity (IC50, Celltiter-Glo cell viability) of NSCLC cell lines versus ERBB2 methylation; type: cell-based; details: in vitro, 72 hrs, 3 nM TGFα, IC50 values only in FIG. 5
Method: After 72 hrs, cell viability was measured using the Celltiter-Glo Luminescent Cell Viability Assay (Promega).

[1] = test system: advanced, treatment-refractory NSCLC; details: phase III, monotherapy, patients with advanced; cited from earlier work
NSCLC = details: phase III, first-line, in combination with standard chemotherapy; cited from earlier work
pancreatic cancer = details: phase III, first-line, in combination with gemcitabine; cited from earlier work

| Structure (SMILES) | correlation of ERBB2 hypomethylation with erlotinib sensitivity (NSCLC cell lines) | disease progression [1] | survival [1] | worsening of lung cancer-related symptoms [1] | survival (NSCLC) | survival (pancreatic cancer) |
| --- | --- | --- | --- | --- | --- | --- |
| C#Cc1cccc(Nc2ncnc3cc(OCCOC)c(OCCOC)cc23)c1 [erlotinib, [6,7-bis(2-methoxyethoxy)-4-quinazolin-4-yl]-(3-ethynylphenyl) amine] | strongly correlated | delayed disease progression | significantly prolonged survival | delayed worsening of lung cancer-related symptoms | did not improve survival | did improve survival |
| COc1cc2ncnc(Nc3ccc(F)c(Cl)c3)c2cc1OCCCN1CCOCC1 [gefitinib] |  |  |  |  | did not improve survival |  |

From patent US11261498B2, “Methods for diagnosing and treating cancer” (priority 2011, dated 2022)
